The nature of this data set: Example 11 Period 2: multiple-dose pharmacokinetics (free and total testosterone, dihydrotestosterone, estradiol, SHBG). Particulars: multi-dose, PK conclusions.

Consider `C[C@]12CC[C@H]3[C@@H](CCC4=CC(=O)CC[C@@]43C)[C@@H]1CC[C@@H]2O` [Testosterone, 17β-Hydroxyandrost-4-en-3-one], for which the “time to return to baseline” value lay in the range of 12 to 15 h.
